# Test results as given in patent EP0587374A2, “Sulfated sterol glycosides and their use against viral infections” (VIROSTAT (NA) NV, priority 1992, dated 1994).
# Several values for one entry are separate records, joined by “and”; a condition that tells them apart may be missing. Equal values may be shown once. Read-outs that look alike come from different tables or passages of the source.
# Legend:
# Feline Herpes virus = details: 50 µg/mℓ
# [1] = test system: Peripheral blood lymphocytes; assay: In vitro cytotoxicity, Trypan Blue exclusion after 3 days of culture; details: for % Viability: 3 days, means of 4 counts
# Experimental: Peripheral blood lymphocytes were prepared from normal blood. Cells were cultured for 3 days in complete medium [(RPMI, a commercially available so-called standard salt solution) + 10 % foetal calf serum (FCS) + […]] in the presence/absence of phytohemagglutinin (PHA). Duplicate wells were set up. Incubation was at 37°C and 5 % CO₂.
# On the third day, cell viabilities were determined using the Trypan Blue exclusion test.
# Those products which were water soluble, were made up at 8 mg/mℓ stocks in sterile distilled water and diluted 1:10 in RPMI medium and again diluted 1:10 directly in the wells containing the cells in complete medium. The final concentrations were thus 80 µg/mℓ. For the lower dilutions, the 8 mg/mℓ stock was diluted 1:2 or 1:4 or 1:8 in water before being diluted in the RPMI medium.
# For those products which were DMSO-soluble, the stocks were made'up at 8 mg/mℓ in 100 % DMSO. This stock was diluted 1:10 in 100 % FCS and diluted 1:10 directly in the wells containing the cells in RPMI medium only. The final concentrations were thus 10 % FCS and 1 % DMSO. For the lower dilutions, the 8 mg/mℓ stock was diluted 1:2 or 1:4 or 1:8 with DMSO before the FCS dilution step.
# This stock was diluted in water to yield a working stock of 2 mg/mℓ. The 2 mg/ml stock was diluted 1:20 or 1:10 or 1:5 or 1:2.5 in water and again 1:10 in the wells to give the 10, 20, 40 or 80 µg/mℓ final concentrations respectively.
# [2] = Experimental: The test animal received food and water without restriction.
# On Tuesdays and Fridays blood samples were taken for blood chemistry, haematology and the measurement of trough plasma levels of the drug. These samples were taken prior to the administration of the drug, but at intervals as indicated in Figure 2 (which is a histogram of blood concentration levels against time) and Table 5. Blood samples were also taken 5, 10 and 15 minutes after drug adminstration in order to assess the peak plasma concentrations achieved. After 30 days the baboon was sacrificed and tissue samples were collected for testing.
# [3] = test system: Feline Infectious Peritonitis Virus
# [4] = for Elimination half-life: open two-compartment model
# Description: Two test animals were used. […] Anaesthesia was maintained with halothane. […] Twenty-five blood samples (1.5 mℓ each) were drawn from each test animal at intervals appropriate to the pharmacokinetic modelling. […]
# blood clotting = details: 50 µg/mℓ, prothrombin time in vitro
# Experimental: Prothrombin Time was measured according to standard techniques using CaCl₂, citrated-plasma and prothrombin.
# [5] = haematology summary, following initial drug administration
structure (smiles),measurement,setting,value
"CC[C@H](CC[C@@H](C)[C@H]1CC[C@H]2[C@@H]3CC=C4C[C@@H](O[C@@H]5O[C@H](COS(=O)(=O)O)[C@@H](OS(=O)(=O)O)[C@H](OS(=O)(=O)O)[C@H]5OS(=O)(=O)O)CC[C@]4(C)[C@H]3CC[C@]12C)C(C)C [BSSG-(SO₄⁻)₄, β-Sitosteryl β-D-glucoside tetra-sulphate]",cytopathic effect of Feline Herpes virus,Feline Herpes virus,delayed by a day
same,% Viability,[1]; Cells + PHA + 10 µg/mℓ,80%
same,% Viability,[1]; Cells + PHA + 20 µg/mℓ,85%
same,% Viability,[1]; Cells + PHA + 40 µg/mℓ,82%
same,% Viability,[1]; Cells + PHA + 80 µg/mℓ,83%
same,"viability of test cells, trend with concentration",[1]; from 10 to 80 µg/mℓ,no tendency to toxicity
same,behavioral characteristics,"[2]; 5 mg/kg i.v. daily, period of treatment",remained unchanged
same,BSSG-³⁵(SO₄⁻)₄ PLASMA LEVEL,"[2]; 5 mg/kg i.v. daily, sample 3-4-92 (Fri: Pre IV), trough",56.0 µg/mL
same,BSSG-³⁵(SO₄⁻)₄ PLASMA LEVEL,"[2]; 5 mg/kg i.v. daily, sample 7-4-92 (Tues: Pre IV), trough",71.0 µg/mL
same,BSSG-³⁵(SO₄⁻)₄ PLASMA LEVEL,"[2]; 5 mg/kg i.v. daily, sample 10-4-92 (Fri: 10 min Post IV), peak",149.5 µg/mL
same,BSSG-³⁵(SO₄⁻)₄ PLASMA LEVEL,"[2]; 5 mg/kg i.v. daily, sample 10-4-92 (Fri: Pre IV), trough",52.5 µg/mL
same,BSSG-³⁵(SO₄⁻)₄ PLASMA LEVEL,"[2]; 5 mg/kg i.v. daily, sample 14-4-92 (Tues: 15 min Post IV), peak",149.7 µg/mL
same,BSSG-³⁵(SO₄⁻)₄ PLASMA LEVEL,"[2]; 5 mg/kg i.v. daily, sample 14-4-92 (Tues: Pre IV), trough",65.0 µg/mL
same,BSSG-³⁵(SO₄⁻)₄ PLASMA LEVEL,"[2]; 5 mg/kg i.v. daily, sample 15-4-92 (Wed: 4 hr Post IV)",72.5 µg/mL
same,BSSG-³⁵(SO₄⁻)₄ PLASMA LEVEL,"[2]; 5 mg/kg i.v. daily, sample 27-3-92 (Fri: Pre IV), trough",60.3 µg/mL
same,BSSG-³⁵(SO₄⁻)₄ PLASMA LEVEL,"[2]; 5 mg/kg i.v. daily, sample 31-3-92 (Tues: Pre IV), trough",59.0 µg/mL
same,24-hour post-dose-trough plasma levels,"[2]; 5 mg/kg i.v. daily, subsequent samples of the study period",> 50 µg/mL
same,BSSG-³⁵(SO₄⁻)₄ PLASMA LEVEL,"[2]; 100 mg (5 mg/kg) i.v. daily Mon-Fri from 16-3-92, sample 24-3-92 (Tues: Pre IV), trough",33.8 µg/mL
same,autopsy findings,[2]; after 30 days of 5 mg/kg i.v. daily,no organ discoloration or change in organ texture
same,"chemical pathology, overall conclusion","[2]; blood chemistry twice a week, Table 6",no direct proof that the changes occurring in time were due to direct toxicity of the substance
same,Haemoglobin (Hb),[2]; general decrease during drug administration from base-line 14.8,12.5 g/dL
same,haematocrit (Hct),[2]; general decrease during drug administration from base-line 43.4,36.9%
same,monocyte count,"[2]; haematology summary, after the second week of drug administration, still present at the end",Absolute monocytopaenia
same,total white cell count,"[2]; haematology summary, following drug administration",slight increase in total white cell count but within normal range
same,lymphocyte count,[2]; [5],transient absolute lymphocytosis
same,platelet count,[2]; [5],transient decrease in platelet count (but still within normal range)
same,haemolysis (Hb and Hct trend),"[2]; haematology summary, supported by biochemical and bone marrow iron findings",slight haemolysis
same,FREE HAEMOGLOBIN CONCENTRATION,"[2]; plasma, 5 mg/kg i.v. daily, sample 7-4-92 (Tues: Pre IV), before treatment 0.004, 0.005",0.005 mg/dL
same,plasma levels of the drug sustained,[2]; single daily i.v. injection of 5 mg/kg body mass over a month long period,50 to 170 µg/mL
same,histological findings,[2]; tissue samples after 30 days of 5 mg/kg i.v. daily,not severe and were fairly non-specific
same,bone marrow cellularity,"[2]; trephine biopsy after 30 days, slightly lower than that of an adult man",approximately 40%
same,major routes of excretion,"[2]; ³⁵S isotope in urine samples and faeces, high levels in the bile",via the kidney and the liver
same,viral cytopathic effect,"[3]; 5, 12.5, 25 and 50 µg/mℓ, 10²-, […]",completely inhibited
same,cytopathic effect of the drug alone,[3]; without virus,no cytopathic effect
same,Elimination half-life,[4]; High Dose (750 mg) i.v.,22 h
same,Peak plasma concentration,"[4]; High Dose (750 mg), i.v. infusion 30 minutes, total dose 55.6 mg/kg",364 µg/mL
same,Elimination half-life,[4]; Low Dose (120 mg) i.v.,12 h
same,Peak plasma concentration,"[4]; Low Dose (120 mg), i.v. infusion 15 minutes, total dose 7.14 mg/kg",102 µg/mL
same,haemolysis in the blood samples,[4]; baboon receiving the lower dose (120 mg i.v.),no evidence of haemolysis
same,haemolysis in the blood samples,[4]; high-dose test animal (750 mg i.v.),macroscopic evidence of haemolysis
same,plasma elimination half-life,"[4]; i.v., range over the two doses (120 mg, 750 mg)",12 - 20 hours and 12 and 22 hours
same,haemodynamic effects,"[4]; intravenous administration, very high plasma concentrations",did not appear to be any deleterious haemodynamic effects
same,inhibition of P24 protein synthesis,"HIV-1; 50 µg/mℓ, from a number of tests",80 - 100%
same,concentration that inhibits P24 protein synthesis by 50%,"HIV-1; by extrapolation of the data in Table 3 (4 days), may vary with lymphocyte batch and HIV-1 titre",9 µg/mL
same,anti-HIV-1 effect (in words),"HIV-1; in terms of P24 protein production, Tables 1-3",marked anti-HIV-1 effects
same,% INHIBITION OF P24 PROTEIN PRODUCTION,"HIV-1; test concentration 0.78 µg/mℓ, duration 4 days",4%
same,% INHIBITION OF P24 PROTEIN PRODUCTION,"HIV-1; test concentration 3.125 µg/mℓ, duration 4 days",27%
same,% INHIBITION OF P24 PROTEIN PRODUCTION,"HIV-1; test concentration 10 µg/mℓ, duration 6 days",55%
same,% INHIBITION OF P24 PROTEIN PRODUCTION,"HIV-1; test concentration 12.5 µg/mℓ, duration 4 days",65%
same,% INHIBITION OF P24 PROTEIN PRODUCTION,"HIV-1; test concentration 25 µg/mℓ, duration 4 days",61% and 88%
same,% INHIBITION OF P24 PROTEIN PRODUCTION,"HIV-1; test concentration 25 µg/mℓ, duration 6 days",91%
same,% INHIBITION OF P24 PROTEIN PRODUCTION,"HIV-1; test concentration 50 µg/mℓ, duration 4 days",83% and 96%
same,% INHIBITION OF P24 PROTEIN PRODUCTION,"HIV-1; test concentration 50 µg/mℓ, duration 6 days",100%
same,% INHIBITION OF P24 PROTEIN PRODUCTION,"HIV-1; test concentration 100 µg/mℓ, duration 4 days",99%
same,effect on blood clotting,blood clotting,did not affect blood clotting
